Assay results from patent EP4707280A1, “1,4-CINEOLE DERIVATIVE AND INTERMEDIATE THEREOF, HERBICIDE CONTAINING SAID DERIVATIVE AS ACTIVE INGREDIENT, METHOD FOR USING HERBICIDE, AND METHOD FOR PREPARING AGROCHEMICAL COMPOSITION” (HOKKO CHEMICAL INDUSTRY CO., LTD., priority 2023, dated 2024).

Key:
Format in all cases: in vivo
[1] = test system: Echinochloa crus-galli var. formosensis; assay: Test Example 5: herbicidal effect test by soil application in paddy rice (low dose); details: 7.5 g per 10 ares, applied immediately after sowing, flooded pots, 14 days after application; for inhibition at 75 g/ha: Echinochloa crus-galli, soil, 336 h, read-out: weed inhibition rate
In short: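 Paddy-soil pots, weeds sown 0–1 cm deep and flooded to about 3 cm in a greenhouse. Emulsifiable concentrate diluted in water and dropped in right after sowing at 7.5 g active ingredient per 10 ares. Duplicates; effect scored 14 days after application.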

Digitaria ciliaris [2] = assay: Test Example 3: herbicidal effect test by soil application in upland field; details: 120 g per 10 ares, sprayed one day after sowing, 14 days after application; for inhibition at 1200 g/ha: Digitaria ciliaris, read-out: weed inhibition rate
In short: (§1)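 Pre-emergence test: seeds mixed into top 1 cm of alluvial loam upland soil in pots; emulsifiable concentrate diluted in water sprayed on soil one day after sowing at 100 L/10 a, 120 g a.i./10 a. Weed inhibition rate (%) scored at 14 days, in duplicate.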

Echinochloa crus-galli [3] = assay: as above; details: 120 g per 10 ares, sprayed one day after sowing, 14 days after application; for inhibition at 1200 g/ha: Echinochloa crus-galli, read-out: weed inhibition rate
In short: as §1

Digitaria ciliaris [4] = assay: Test Example 7: herbicidal effect test by soil application in upland field (low dose); details: 7.5 g per 10 ares, sprayed one day after sowing, 14 days after application; for inhibition at 75 g/ha: Digitaria ciliaris, read-out: weed inhibition rate
In short: (§2)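 Upland alluvial loam pots, seeds mixed into top 1 cm of soil; one day after sowing, diluted emulsifiable concentrate sprayed on soil at 100 L/10 a, giving 7.5 g active ingredient/10 a. Duplicate pots; weed inhibition rate (%) scored 14 days after application.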

Echinochloa crus-galli [5] = assay: as above; details: 7.5 g per 10 ares, sprayed one day after sowing, 14 days after application; for inhibition at 75 g/ha: Echinochloa crus-galli, read-out: weed inhibition rate
In short: as §2

[6] = test system: Echinochloa crus-galli var. formosensis; assay: Test Example 1: herbicidal effect test by soil application in paddy rice; details: 120 g active ingredient per 10 ares, applied immediately after sowing, flooded pots, 14 days after application; for pest or weed control at 1200 g/ha: Echinochloa crus-galli, soil, 336 h, read-out: weed inhibition rate
In short: (§3)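 Paddy soil in Wagner pots (1/10,000 acre), fertilized and puddled; 30 seeds per species sown at 0–1 cm, flooded to ~3 cm, greenhouse. Water-diluted emulsifiable concentrate dropped onto flooded pots right after sowing at 120 g active ingredient per 10 ares.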

Scirpus juncoides [7] = assay: as above; details: 120 g active ingredient per 10 ares, applied immediately after sowing, flooded pots, 14 days after application; for pest or weed control at 1200 g/ha: Schoenoplectiella juncoides, soil, 336 h, read-out: weed inhibition rate
In short: as §3

[8] = test system: Echinochloa crus-galli var. formosensis; assay: Test Example 2: herbicidal effect test by application during growth period of paddy rice; details: 120 g per 10 ares, applied seven days after sowing, flooded pots, 14 days after application; for inhibition at 1200 g/ha: Echinochloa crus-galli, read-out: weed inhibition rate
In short: (§4)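 Paddy soil in flooded pots (water depth about 3 cm) was sown with weed seeds and kept in a glass greenhouse. Seven days after sowing, a diluted emulsifiable concentrate was applied by dropper at 120 g active ingredient per 10 ares. Weed inhibition was evaluated 14 days after application, in duplicate.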

Scirpus juncoides [9] = assay: as above; details: 120 g per 10 ares, applied seven days after sowing, flooded pots, 14 days after application; for inhibition at 1200 g/ha: Schoenoplectiella juncoides, read-out: weed inhibition rate
In short: as §4

Echinochloa crus-galli [10] = assay: Test Example 4: herbicidal effect test by stem and leaf treatment in upland field; details: 120 g per 10 ares, sprayed seven days after sowing, upland soil, 14 days after application; for inhibition at 1200 g/ha: Echinochloa crus-galli, read-out: weed inhibition rate
Digitaria ciliaris [11] = assay: as above; details: 120 g per 10 ares, sprayed seven days after sowing, upland soil, 14 days after application; for inhibition at 1200 g/ha: Digitaria ciliaris, read-out: weed inhibition rate
[12] = test system: Echinochloa crus-galli var. formosensis; assay: Test Example 6: herbicidal effect test by application during growth period of paddy rice (low dose); details: 7.5 g per 10 ares, applied seven days after sowing, flooded pots, 14 days after application; for inhibition at 75 g/ha: Echinochloa crus-galli, read-out: weed inhibition rate
In short: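 Paddy-soil pots, flooded ~3 cm after sowing weed seeds at 0-1 cm depth, greenhouse-grown. Seven days after sowing, diluted emulsifiable concentrate applied by dropper at 7.5 g active ingredient per 10 ares. Weed inhibition rate (%) scored 14 days after application, in duplicate.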

Digitaria ciliaris [13] = assay: Test Example 8: herbicidal effect test by stem and leaf treatment in upland field (low dose); details: 7.5 g per 10 ares, sprayed seven days after sowing, upland soil, 14 days after application; for inhibition at 75 g/ha: Digitaria ciliaris, read-out: weed inhibition rate
Echinochloa crus-galli [14] = assay: as above; details: 7.5 g per 10 ares, sprayed seven days after sowing, upland soil, 14 days after application; for inhibition at 75 g/ha: Echinochloa crus-galli, read-out: weed inhibition rate

CC(C)[C@]12C[C@@H](OCc3ccccc3C#N)[C@](C)(C[C@@H]1I)O2 [1-768, 2-[[(l S,2R,4R,5S)-5-iodo-4-isopropyl-l-methyl-7-oxabicyclo[2.2.1]heptan-2-yl]oxymethyl]benzonitrile]
≥ 80%: weed inhibition rate [1] | weed inhibition rate (Digitaria ciliaris [2]) | weed inhibition rate (Echinochloa crus-galli [3]) | weed inhibition rate (Digitaria ciliaris [4]) | weed inhibition rate (Echinochloa crus-galli [5]) | weed inhibition rate [6] | weed inhibition rate (Scirpus juncoides [7]) | weed inhibition rate [8] | weed inhibition rate (Scirpus juncoides [9]) | weed inhibition rate (Echinochloa crus-galli [10]) | weed inhibition rate (Digitaria ciliaris [11]) | weed inhibition rate [12] | weed inhibition rate (Digitaria ciliaris [13]) | weed inhibition rate (Echinochloa crus-galli [14])

CC(C)[C@]12C[C@@H](OCc3cccs3)[C@](C)(C[C@@H]1I)O2 [1-788, (1R,2S,4S,5R)-2-iodo-1-isopropyl-4-methyl-5-(2-thienylmethoxy)-7-oxabicyclo[2.2.1]heptane]
≥ 80%: inhibition at 75 g/ha [1] | inhibition at 1200 g/ha (Digitaria ciliaris [2]) | inhibition at 1200 g/ha (Echinochloa crus-galli [3]) | inhibition at 75 g/ha (Digitaria ciliaris [4]) | inhibition at 75 g/ha (Echinochloa crus-galli [5]) | pest or weed control at 1200 g/ha [6] | pest or weed control at 1200 g/ha (Scirpus juncoides [7]) | inhibition at 1200 g/ha [8] | inhibition at 1200 g/ha (Scirpus juncoides [9]) | inhibition at 1200 g/ha (Echinochloa crus-galli [10]) | inhibition at 1200 g/ha (Digitaria ciliaris [11]) | inhibition at 75 g/ha [12] | inhibition at 75 g/ha (Digitaria ciliaris [13]) | inhibition at 75 g/ha (Echinochloa crus-galli [14])

CC(C)[C@]12C[C@@H](OCc3ccccc3F)[C@](C)(C=C1OS(=O)(=O)C(F)(F)F)O2 (racemic) [3-680]
≥ 80%: weed inhibition rate [1] | weed inhibition rate (Digitaria ciliaris [2]) | weed inhibition rate (Echinochloa crus-galli [3]) | weed inhibition rate (Digitaria ciliaris [4]) | weed inhibition rate (Echinochloa crus-galli [5]) | weed inhibition rate [6] | weed inhibition rate (Scirpus juncoides [7]) | weed inhibition rate [8] | weed inhibition rate (Scirpus juncoides [9]) | weed inhibition rate (Echinochloa crus-galli [10]) | weed inhibition rate (Digitaria ciliaris [11]) | weed inhibition rate [12] | weed inhibition rate (Digitaria ciliaris [13]) | weed inhibition rate (Echinochloa crus-galli [14])

CC(C)C12CC(OCc3ccsc3)C(C)(CC1I)O2 (stereo not shown) [1-1457, 2-iodo-1-isopropyl-4-methyl-5-(3-thienylmethoxy)-7-oxabicyclo[2.2.1]heptane]
≥ 80%: inhibition at 75 g/ha [1] | inhibition at 1200 g/ha (Digitaria ciliaris [2]) | inhibition at 1200 g/ha (Echinochloa crus-galli [3]) | inhibition at 75 g/ha (Digitaria ciliaris [4]) | inhibition at 75 g/ha (Echinochloa crus-galli [5]) | pest or weed control at 1200 g/ha [6] | pest or weed control at 1200 g/ha (Scirpus juncoides [7]) | inhibition at 1200 g/ha [8] | inhibition at 1200 g/ha (Scirpus juncoides [9]) | inhibition at 1200 g/ha (Echinochloa crus-galli [10]) | inhibition at 1200 g/ha (Digitaria ciliaris [11]) | inhibition at 75 g/ha [12] | inhibition at 75 g/ha (Digitaria ciliaris [13]) | inhibition at 75 g/ha (Echinochloa crus-galli [14])

CC(C)C12CC(OCc3c(F)cccc3Br)C(C)(CC1Cl)O2 (stereo not shown) [1-1611, 2-[(2-bromo-6-fluorophenyl)methoxy]-5-chloro-1-methyl-4-isopropyl-7-oxabicyclo[2.2.1]heptane]
≥ 80%: inhibition at 75 g/ha [1] | inhibition at 1200 g/ha (Digitaria ciliaris [2]) | inhibition at 1200 g/ha (Echinochloa crus-galli [3]) | inhibition at 75 g/ha (Digitaria ciliaris [4]) | inhibition at 75 g/ha (Echinochloa crus-galli [5]) | pest or weed control at 1200 g/ha [6] | pest or weed control at 1200 g/ha (Scirpus juncoides [7]) | inhibition at 1200 g/ha [8] | inhibition at 1200 g/ha (Scirpus juncoides [9]) | inhibition at 1200 g/ha (Echinochloa crus-galli [10]) | inhibition at 1200 g/ha (Digitaria ciliaris [11]) | inhibition at 75 g/ha [12] | inhibition at 75 g/ha (Digitaria ciliaris [13]) | inhibition at 75 g/ha (Echinochloa crus-galli [14])

CC#CCO[C@@H]1C[C@]2(C(C)C)O[C@@]1(C)C[C@@H]2I [1-734, (1R,2S,4S,5R)-5-but-2-ynoxy-2-iodo-1-isopropyl-4-methyl-7-oxabicyclo[2.2.1]heptane]
≥ 80%: inhibition at 75 g/ha [1] | inhibition at 1200 g/ha (Digitaria ciliaris [2]) | inhibition at 1200 g/ha (Echinochloa crus-galli [3]) | inhibition at 75 g/ha (Digitaria ciliaris [4]) | inhibition at 75 g/ha (Echinochloa crus-galli [5]) | pest or weed control at 1200 g/ha [6] | pest or weed control at 1200 g/ha (Scirpus juncoides [7]) | inhibition at 1200 g/ha [8] | inhibition at 1200 g/ha (Scirpus juncoides [9]) | inhibition at 1200 g/ha (Echinochloa crus-galli [10]) | inhibition at 1200 g/ha (Digitaria ciliaris [11]) | inhibition at 75 g/ha [12] | inhibition at 75 g/ha (Digitaria ciliaris [13]) | inhibition at 75 g/ha (Echinochloa crus-galli [14])

CC(C)[C@]12C=C[C@](C)(O1)[C@H](OCC1CCCCC1)C2 [3-697, (1R,4S,5R)-5-(cyclohexylmethoxy)-1-isopropyl-4-methyl-7-oxabicyclo[2.2.1]hept-2-ene]
≥ 80%: inhibition at 75 g/ha [1] | inhibition at 1200 g/ha (Digitaria ciliaris [2]) | inhibition at 1200 g/ha (Echinochloa crus-galli [3]) | inhibition at 75 g/ha (Digitaria ciliaris [4]) | inhibition at 75 g/ha (Echinochloa crus-galli [5]) | pest or weed control at 1200 g/ha [6] | pest or weed control at 1200 g/ha (Scirpus juncoides [7]) | inhibition at 1200 g/ha [8] | inhibition at 1200 g/ha (Scirpus juncoides [9]) | inhibition at 1200 g/ha (Echinochloa crus-galli [10]) | inhibition at 1200 g/ha (Digitaria ciliaris [11]) | inhibition at 75 g/ha [12] | inhibition at 75 g/ha (Digitaria ciliaris [13]) | inhibition at 75 g/ha (Echinochloa crus-galli [14])

CC(C)[C@]12C[C@@H](OCc3ccccc3Cl)[C@](C)(C[C@@H]1Cl)O2 [1-13, (1R,2S,4S,5R)-2-chloro-5-[(2-chlorophenyl)methoxy]-1-isopropyl-4-methyl-7-oxabicyclo[2.2.1]heptane]
≥ 80%: inhibition at 75 g/ha [1] | inhibition at 1200 g/ha (Digitaria ciliaris [2]) | inhibition at 1200 g/ha (Echinochloa crus-galli [3]) | inhibition at 75 g/ha (Digitaria ciliaris [4]) | inhibition at 75 g/ha (Echinochloa crus-galli [5]) | pest or weed control at 1200 g/ha [6] | pest or weed control at 1200 g/ha (Scirpus juncoides [7]) | inhibition at 1200 g/ha [8] | inhibition at 1200 g/ha (Scirpus juncoides [9]) | inhibition at 1200 g/ha (Echinochloa crus-galli [10]) | inhibition at 1200 g/ha (Digitaria ciliaris [11]) | inhibition at 75 g/ha [12] | inhibition at 75 g/ha (Digitaria ciliaris [13]) | inhibition at 75 g/ha (Echinochloa crus-galli [14])
